SMILES strings stand for the structures.

A short description of assay [1]: Positive allosteric modulator activity at human CB2R expressed in CHO-K1 cell membrane assessed as CP55940 EC50 for [35S]GTPgammaS binding at 1 nM measured after 90 mins by liquid scintillation counting analysis (Rvb = 1.9 nM). For orientation: GTPγS resists hydrolysis and so accumulates on activated G proteins.
The nature of assay [2]: Positive allosteric modulator activity at human CB2R expressed in CHO-K1 cell membrane assessed as CP55940 EC50 for [35S]GTPgammaS binding at 100 nM measured after 90 mins by liquid scintillation counting analysis (Rvb = 1.9 nM).

For orientation: EC50 means the concentration needed to bring the measured effect to its halfway point. For `Cc1c(Br)cn(Cc2ccccc2Cl)c(=O)c1NC(=O)C1CCCCCC1`, the EC50 came to 2.6 nM in assay [1] and 2.4 nM in assay [2].

As for `Cc1c(Br)cn(Cc2ccccc2F)c(=O)c1NC(=O)C1CCCCCC1`, the concentration giving a half-maximal response (EC50) in assay [1] was determined as 3.4 nM; in assay [2], 7 nM.

Source of the values: BindingDB's records for doi:10.1016/j.ejmech.2020.113116 (University of Pisa, 2021).
